Biological target: T1, SUMO E1 SAE1 Q312A mutant (Homo sapiens, UniProt Q9UBE0+Q9UBT2, Q312A)
T1 construct: GST (N); made in house; host or cells: Escherichia coli BL21
T1 sequence (Q9UBE0 1-346 Q312A): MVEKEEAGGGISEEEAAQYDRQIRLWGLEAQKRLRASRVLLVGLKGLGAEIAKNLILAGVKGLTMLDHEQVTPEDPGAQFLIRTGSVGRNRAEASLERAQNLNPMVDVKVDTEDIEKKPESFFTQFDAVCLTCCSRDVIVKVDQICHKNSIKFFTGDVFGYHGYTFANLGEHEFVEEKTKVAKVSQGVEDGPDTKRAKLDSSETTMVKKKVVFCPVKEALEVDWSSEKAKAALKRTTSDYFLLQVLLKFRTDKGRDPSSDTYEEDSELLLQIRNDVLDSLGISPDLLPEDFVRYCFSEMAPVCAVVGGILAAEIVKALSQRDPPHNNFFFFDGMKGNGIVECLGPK
T1 sequence (Q9UBT2 1-640): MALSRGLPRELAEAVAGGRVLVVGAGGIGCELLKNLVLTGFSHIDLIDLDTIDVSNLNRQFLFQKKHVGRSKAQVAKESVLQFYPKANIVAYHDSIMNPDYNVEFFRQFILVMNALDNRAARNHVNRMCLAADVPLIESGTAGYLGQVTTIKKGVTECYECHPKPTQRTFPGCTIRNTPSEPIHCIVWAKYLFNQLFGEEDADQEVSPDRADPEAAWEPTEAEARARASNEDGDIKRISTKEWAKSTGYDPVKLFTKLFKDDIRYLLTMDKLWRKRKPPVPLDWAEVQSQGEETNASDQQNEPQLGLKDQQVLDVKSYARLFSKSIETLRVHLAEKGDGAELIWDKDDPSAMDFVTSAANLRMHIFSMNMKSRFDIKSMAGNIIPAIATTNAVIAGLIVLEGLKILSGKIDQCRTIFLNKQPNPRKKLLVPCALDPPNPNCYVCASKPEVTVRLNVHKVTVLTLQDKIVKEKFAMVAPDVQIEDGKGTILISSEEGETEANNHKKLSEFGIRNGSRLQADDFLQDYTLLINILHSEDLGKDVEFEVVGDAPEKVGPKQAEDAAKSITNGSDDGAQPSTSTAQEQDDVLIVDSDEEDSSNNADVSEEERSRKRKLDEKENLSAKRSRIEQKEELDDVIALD
Experiment: SUMO E1 activity assays with SAE1 Q312A mutant
Format: biochemical
Experimental: Figure 3 SUMO-specific activating enzyme, E1, is a direct target of N106. Mechanism of action of N106 on individual steps in the SUMOylation cascade in vitro. (a) Inorganic pyrophosphate resulting from ATP hydrolysis in E1-catalysed SUMO-1 activation in the presence of increasing concentration of N106 compound was assessed by fluorogenic pyrophosphate assay kit. Recombinant human SUMO-specific E1 (0.05 μM), human Ubc9 (0.25 μM), human SUMO-1 (12.5 μM) and ATP (1 mM) were incubated with increasing concentration of N106 for 30 min at 37 °C and quantified using a fluorescence microplate reader. (b) The SAE2-SUMO-1 conjugation was detected followed by western blotting with anti-SAE2 antibodies. SUMO E1 (0.05 μM), SUMO-1 (12.5 μM) and ATP (1 mM) were co-incubated with increasing concentration of N106 for 30 min at 37 °C. The reaction mixtures were separated on 7.5% SDS–PAGE gel under non-reducing conditions. (c) E2-SUMO-1 conjugation was visualized by western blotting with anti-Ubc9 antibody. SUMO E1 (0.05 μM), Ubc9 (0.25 μM), SUMO-1 (12.5 μM) and ATP (1 mM) were incubated without or with increasing concentration of N106 for 30 min at 37 °C. […] (e) ATP hydrolytic activity of WT and mutant SUMO E1 are determined. (f) The E1-SUMO-1 conjugation was detected followed by western blot analysis with anti-SAE2 antibody. *The SAE2-SUMO-1 conjugated bands. […]

COc1ccc(-c2nnc(Nc3nc4c(OC)cccc4s3)o2)cc1 [Compound N106, N-(4-methoxybenzo[d]thiazol-2-yl)-5-(4-methoxyphenyl)-1,3,4-oxadiazol-2-amine]
ATP hydrolysis activity with N106, compared with wild-type protein (Q312A mutant): significantly lower
SUMO E1-SUMO and SUMO E2-SUMO conjugations in the presence of N106, compared with WT (Q312A mutant SAE1): weaker
